# Experimental data from patent publication US20050170331A1, “Method for characterizing metabolic stability of a drug” (priority 2003, published 2005).
# Test system: hepatocytes
# Assay: Metabolic stability in hepatocyte suspension by hyperpolarised 13C NMR
# Assay type: in vitro ADME
# Conditions: hepatocytes 1·10^6 cells/ml in RPMI 1640, 37° C., 30 s incubation, drug candidate approximately 0.46 mM, DNP hyperpolarised
# Experimental: The concentration of hepatocytes was 1·10^6 cells/ml in a suspension of RPMI 1640 medium. 1 ml of this suspension was placed in a 10 mm NMR tube with a bottom plug, reducing the active volume to […]. The tube was placed in a 9.4 T magnet with the temperature of the probe equilibrated to 37° C. A tube was connected to the bottom of the NMR tube to allow for injection of the hyperpolarised drug candidate solution into the cell suspension.
# ^13C2-sodiumfumerate was diluted in water and mixed (1:1 w/w) with a glycerol solution containing 40 mM trityl. The liquid sample was frozen as droplets in liquid nitrogen. 84.3 mg of this sample (3.84 mg of ^13C2-sodiumfumerate) was placed in the polariser and hyperpolarised for two hours at 93.945 GHz and 100 mW (DNP method). The dissolution was performed with Tris buffer containing 100 mg/l EDTA (pH 7.4, 20 mM, 6 ml). The active dissolution volume was 5.5 ml with full recovery of the sample. A 1 ml syringe was filled completely (volume: 1100 μl) with the dissolved ^13C2-sodiumfumerate solution, a total of 100 μl of this solution was quickly transferred to the liquid-NMR magnet and injected into the cell suspension, resulting in a total drug candidate concentration of approximately 0.46 mM. […]
compound,measurement,value
O=C([O-])/C=C/C(=O)[O-].[Na+].[Na+] [^13C2-sodiumfumerate],metabolites of the drug candidate observed in the 13C NMR spectrum of the mixture,"two different metabolites of the drug candidate, namely succinate and malate"
